Where two headings read alike, the source gives them in different places.
Assays:
Assay in all cases: biochemical
Format in all cases: biochemical
382 unique human kinases [1] = target: T1, 382 unique human kinases (Homo sapiens, UniProt O00238); conditions: kinase ALK6/BMPR1B, compound 10 uM; for remaining activity at 10 µM: read-out: % Enzyme Activity (relative to DMSO controls)
T1 construct: purchased Reaction Biology (HotSpot contract assay)

382 unique human kinases [2] = target: T2, 382 unique human kinases (Homo sapiens, UniProt P10721, D820E); conditions: c-Kit (D820E), 10 uM; for remaining activity at 10 µM: read-out: % Enzyme Activity (relative to DMSO controls)
T2 construct: purchased Reaction Biology (HotSpot contract assay)
T2 sequence (P10721 26-976 D820E): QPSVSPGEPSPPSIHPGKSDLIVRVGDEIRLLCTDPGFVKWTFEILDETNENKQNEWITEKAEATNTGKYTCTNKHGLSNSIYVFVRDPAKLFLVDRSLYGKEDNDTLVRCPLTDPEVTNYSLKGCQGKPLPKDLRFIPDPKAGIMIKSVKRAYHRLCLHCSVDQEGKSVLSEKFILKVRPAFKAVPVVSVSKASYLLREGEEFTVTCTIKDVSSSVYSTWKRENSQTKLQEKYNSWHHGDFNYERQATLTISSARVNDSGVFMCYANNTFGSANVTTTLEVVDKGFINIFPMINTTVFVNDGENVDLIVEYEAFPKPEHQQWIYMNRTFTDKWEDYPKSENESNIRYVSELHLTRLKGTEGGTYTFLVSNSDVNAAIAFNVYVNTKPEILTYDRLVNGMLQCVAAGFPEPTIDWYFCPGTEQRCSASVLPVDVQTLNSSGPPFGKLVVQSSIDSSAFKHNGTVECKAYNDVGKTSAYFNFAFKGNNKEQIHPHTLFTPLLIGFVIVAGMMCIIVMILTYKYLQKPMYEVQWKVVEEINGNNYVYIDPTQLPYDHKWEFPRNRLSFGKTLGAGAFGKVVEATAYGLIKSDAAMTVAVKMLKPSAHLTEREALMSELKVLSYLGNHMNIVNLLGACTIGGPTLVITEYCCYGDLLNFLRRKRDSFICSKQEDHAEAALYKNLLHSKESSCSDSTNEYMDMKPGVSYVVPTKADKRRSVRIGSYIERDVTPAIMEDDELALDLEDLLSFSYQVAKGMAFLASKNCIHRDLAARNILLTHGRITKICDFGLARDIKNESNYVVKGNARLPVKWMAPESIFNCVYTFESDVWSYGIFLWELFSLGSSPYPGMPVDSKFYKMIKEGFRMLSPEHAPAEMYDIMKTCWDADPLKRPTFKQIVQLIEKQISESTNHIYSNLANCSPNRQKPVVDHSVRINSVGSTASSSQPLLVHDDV

382 unique human kinases [3] = target: T3, 382 unique human kinases (Homo sapiens, UniProt P21802, K659N); conditions: FGFR2 (K659N), 10 uM; for remaining activity at 10 µM: read-out: % Enzyme Activity (relative to DMSO controls)
T3 construct: purchased Reaction Biology (HotSpot contract assay)
T3 sequence (P21802 22-821 K659N): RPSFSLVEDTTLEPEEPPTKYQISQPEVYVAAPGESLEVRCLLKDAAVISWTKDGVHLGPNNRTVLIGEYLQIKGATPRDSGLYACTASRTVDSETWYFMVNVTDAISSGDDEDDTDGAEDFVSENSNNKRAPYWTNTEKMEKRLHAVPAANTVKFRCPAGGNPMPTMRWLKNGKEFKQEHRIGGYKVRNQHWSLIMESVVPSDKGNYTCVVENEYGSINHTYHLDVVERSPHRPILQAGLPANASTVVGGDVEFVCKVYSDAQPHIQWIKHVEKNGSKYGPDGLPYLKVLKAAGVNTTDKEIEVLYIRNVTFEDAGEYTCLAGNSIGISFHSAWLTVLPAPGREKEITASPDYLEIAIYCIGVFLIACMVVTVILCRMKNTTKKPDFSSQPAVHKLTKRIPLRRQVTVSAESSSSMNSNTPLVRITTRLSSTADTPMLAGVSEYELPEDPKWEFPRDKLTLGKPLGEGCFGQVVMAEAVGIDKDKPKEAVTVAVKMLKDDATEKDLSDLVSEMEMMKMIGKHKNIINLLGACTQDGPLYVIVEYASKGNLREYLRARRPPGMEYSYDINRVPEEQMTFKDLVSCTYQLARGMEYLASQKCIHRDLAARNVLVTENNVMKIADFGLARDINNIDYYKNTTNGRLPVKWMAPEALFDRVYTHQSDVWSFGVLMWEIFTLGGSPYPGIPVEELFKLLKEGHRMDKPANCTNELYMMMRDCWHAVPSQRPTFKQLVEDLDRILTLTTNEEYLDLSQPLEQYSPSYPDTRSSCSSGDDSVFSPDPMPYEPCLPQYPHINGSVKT

382 unique human kinases [4] = target: T4, 382 unique human kinases (Homo sapiens, UniProt P49674); conditions: CK1epsilon, 10 uM; for remaining activity at 10 µM: read-out: % Enzyme Activity (relative to DMSO controls)
T4 construct: purchased Reaction Biology (HotSpot contract assay)

382 unique human kinases [5] = target: T5, 382 unique human kinases (Homo sapiens, UniProt P54646); conditions: for remaining activity at 10 µM: read-out: % Enzyme Activity (relative to DMSO controls)
T5 construct: purchased Reaction Biology (HotSpot contract assay)
T5 sequence (P54646 whole entry): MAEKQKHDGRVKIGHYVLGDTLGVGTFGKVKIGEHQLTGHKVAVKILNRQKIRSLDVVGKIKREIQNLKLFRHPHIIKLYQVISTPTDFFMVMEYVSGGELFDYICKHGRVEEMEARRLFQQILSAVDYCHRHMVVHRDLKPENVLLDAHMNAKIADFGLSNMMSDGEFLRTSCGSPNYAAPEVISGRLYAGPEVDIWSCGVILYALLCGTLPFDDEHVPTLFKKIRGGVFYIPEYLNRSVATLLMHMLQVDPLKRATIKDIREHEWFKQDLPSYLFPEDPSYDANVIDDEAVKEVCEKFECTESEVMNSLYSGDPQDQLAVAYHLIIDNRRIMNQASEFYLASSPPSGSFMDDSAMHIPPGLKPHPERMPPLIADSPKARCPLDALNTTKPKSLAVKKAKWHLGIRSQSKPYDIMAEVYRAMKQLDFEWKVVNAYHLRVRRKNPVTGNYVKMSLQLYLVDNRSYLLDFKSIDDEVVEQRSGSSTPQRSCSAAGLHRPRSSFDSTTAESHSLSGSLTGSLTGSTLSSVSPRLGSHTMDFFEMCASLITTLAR

382 unique human kinases [6] = target: T6, 382 unique human kinases (Homo sapiens, UniProt Q04771, Q207D); conditions: ALK2 (Q207D), compound at 10 uM, duplicate values; for remaining activity at 10 µM: read-out: % Enzyme Activity (relative to DMSO controls)
T6 construct: purchased Reaction Biology (HotSpot contract assay)
T6 sequence (Q04771 21-509 Q207D): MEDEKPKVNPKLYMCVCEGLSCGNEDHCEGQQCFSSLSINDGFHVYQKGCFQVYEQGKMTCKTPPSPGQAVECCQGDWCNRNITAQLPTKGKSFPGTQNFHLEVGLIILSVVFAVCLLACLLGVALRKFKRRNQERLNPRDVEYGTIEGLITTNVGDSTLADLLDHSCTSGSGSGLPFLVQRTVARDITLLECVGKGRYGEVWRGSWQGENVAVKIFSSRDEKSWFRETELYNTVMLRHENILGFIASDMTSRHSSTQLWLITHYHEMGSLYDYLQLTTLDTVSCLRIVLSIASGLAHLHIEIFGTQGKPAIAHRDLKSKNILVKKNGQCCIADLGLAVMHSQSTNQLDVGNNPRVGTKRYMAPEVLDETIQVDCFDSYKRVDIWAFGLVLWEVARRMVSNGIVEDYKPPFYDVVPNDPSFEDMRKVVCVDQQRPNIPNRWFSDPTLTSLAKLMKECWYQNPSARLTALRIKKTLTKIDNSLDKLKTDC

382 unique human kinases [7] = target: T7, 382 unique human kinases (Homo sapiens, UniProt Q13163); conditions: MEK5, 10 uM; for remaining activity at 10 µM: read-out: % Enzyme Activity (relative to DMSO controls)
T7 construct: purchased Reaction Biology (HotSpot contract assay)
T7 sequence (Q13163 1-448): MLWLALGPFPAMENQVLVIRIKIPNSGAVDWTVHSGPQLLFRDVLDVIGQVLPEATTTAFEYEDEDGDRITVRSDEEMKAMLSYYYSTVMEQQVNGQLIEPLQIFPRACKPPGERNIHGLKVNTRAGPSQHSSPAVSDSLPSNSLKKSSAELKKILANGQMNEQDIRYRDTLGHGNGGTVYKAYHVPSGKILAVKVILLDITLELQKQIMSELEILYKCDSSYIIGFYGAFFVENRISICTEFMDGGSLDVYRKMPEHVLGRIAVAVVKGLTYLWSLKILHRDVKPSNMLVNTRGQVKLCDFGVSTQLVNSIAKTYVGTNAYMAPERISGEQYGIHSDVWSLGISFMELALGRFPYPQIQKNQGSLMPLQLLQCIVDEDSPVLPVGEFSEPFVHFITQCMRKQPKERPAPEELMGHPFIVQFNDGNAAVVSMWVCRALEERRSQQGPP

382 unique human kinases [8] = target: T8, 382 unique human kinases (Homo sapiens, UniProt Q13554); conditions: kinase CAMK2b, compound 10 uM; for remaining activity at 10 µM: read-out: % Enzyme Activity (relative to DMSO controls)
T8 construct: purchased Reaction Biology (HotSpot contract assay)
T8 sequence (Q13554 whole entry): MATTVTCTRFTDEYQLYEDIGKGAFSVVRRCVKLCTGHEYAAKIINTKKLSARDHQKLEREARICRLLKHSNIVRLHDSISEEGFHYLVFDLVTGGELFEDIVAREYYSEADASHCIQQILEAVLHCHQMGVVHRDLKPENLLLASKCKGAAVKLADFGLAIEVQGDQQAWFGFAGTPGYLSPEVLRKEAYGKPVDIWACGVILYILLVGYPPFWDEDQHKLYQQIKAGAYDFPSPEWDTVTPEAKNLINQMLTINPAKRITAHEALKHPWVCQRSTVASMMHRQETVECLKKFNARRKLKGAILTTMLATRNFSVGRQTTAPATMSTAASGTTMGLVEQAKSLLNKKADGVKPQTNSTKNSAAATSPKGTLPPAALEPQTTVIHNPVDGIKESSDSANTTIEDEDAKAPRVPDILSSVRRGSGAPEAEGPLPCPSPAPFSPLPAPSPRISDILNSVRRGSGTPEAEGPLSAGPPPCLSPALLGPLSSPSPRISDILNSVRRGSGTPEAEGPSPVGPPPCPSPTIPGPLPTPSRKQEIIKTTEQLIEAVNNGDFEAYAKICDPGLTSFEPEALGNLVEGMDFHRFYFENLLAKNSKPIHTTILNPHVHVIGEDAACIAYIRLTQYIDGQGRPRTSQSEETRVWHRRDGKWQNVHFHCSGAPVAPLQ

382 unique human kinases [9] = target: T9, 382 unique human kinases (Homo sapiens, UniProt Q96GD4); conditions: kinase Aurora B, compound 10 uM; for remaining activity at 10 µM: read-out: % Enzyme Activity (relative to DMSO controls)
T9 construct: purchased Reaction Biology (HotSpot contract assay)
T9 sequence (Q96GD4 whole entry): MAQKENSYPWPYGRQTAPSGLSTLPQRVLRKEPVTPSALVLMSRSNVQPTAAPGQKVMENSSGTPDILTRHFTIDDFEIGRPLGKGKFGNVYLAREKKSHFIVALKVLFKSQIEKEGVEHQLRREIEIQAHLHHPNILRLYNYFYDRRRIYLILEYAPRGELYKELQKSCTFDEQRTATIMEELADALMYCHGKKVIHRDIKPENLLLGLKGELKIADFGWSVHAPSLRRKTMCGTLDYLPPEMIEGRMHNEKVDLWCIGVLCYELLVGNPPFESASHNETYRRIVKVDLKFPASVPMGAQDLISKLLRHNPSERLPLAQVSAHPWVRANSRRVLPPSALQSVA

382 unique human kinases [10] = target: T10, 382 unique human kinases (Homo sapiens, UniProt Q9BUB5); conditions: kinase MNK1, compound 10 uM; for remaining activity at 10 µM: read-out: % Enzyme Activity (relative to DMSO controls)
T10 construct: purchased Reaction Biology (HotSpot contract assay)

382 unique human kinases [11] = target: T11, 382 unique human kinases (Homo sapiens, UniProt Q9HBY8); conditions: kinase SGK2, compound 10 uM; for remaining activity at 10 µM: read-out: % Enzyme Activity (relative to DMSO controls)
T11 construct: purchased Reaction Biology (HotSpot contract assay)
T11 sequence (Q9HBY8 1-367): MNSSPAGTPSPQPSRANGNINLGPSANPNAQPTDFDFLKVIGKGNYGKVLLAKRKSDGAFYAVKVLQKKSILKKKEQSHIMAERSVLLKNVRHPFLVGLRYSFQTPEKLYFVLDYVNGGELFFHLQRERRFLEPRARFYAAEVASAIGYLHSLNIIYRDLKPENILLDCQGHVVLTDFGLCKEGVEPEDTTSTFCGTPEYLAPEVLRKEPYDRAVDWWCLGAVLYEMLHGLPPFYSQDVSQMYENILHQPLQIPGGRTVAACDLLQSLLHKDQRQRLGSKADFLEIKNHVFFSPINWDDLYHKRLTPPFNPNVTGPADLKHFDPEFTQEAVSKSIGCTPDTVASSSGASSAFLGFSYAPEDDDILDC

382 unique human kinases [12] = target: T12, 382 unique human kinases (Homo sapiens, UniProt O95819); conditions: HGK/MAP4K4, 10 uM; for remaining activity at 10 µM: read-out: % Enzyme Activity (relative to DMSO controls)
T12 construct: purchased Reaction Biology (HotSpot contract assay)

382 unique human kinases [13] = target: T13, 382 unique human kinases (Homo sapiens, UniProt P08581, D1228H); conditions: c-MET (D1228H), 10 uM; for remaining activity at 10 µM: read-out: % Enzyme Activity (relative to DMSO controls)
T13 construct: purchased Reaction Biology (HotSpot contract assay)

382 unique human kinases [14] = target: T14, 382 unique human kinases (Homo sapiens, UniProt Q15418); conditions: RSK1, [ATP] 20 µM, compound 10 uM; for remaining activity at 10 µM: read-out: % Enzyme Activity (relative to DMSO controls)
T14 construct: purchased Reaction Biology (HotSpot contract assay)

382 unique human kinases [15] = target: T15, 382 unique human kinases (Homo sapiens, UniProt Q5S007, I2020T); conditions: LRRK2 (I2020T), [ATP] 10 µM, compound 10 uM; for remaining activity at 10 µM: read-out: % Enzyme Activity (relative to DMSO controls)
T15 construct: purchased Reaction Biology (HotSpot contract assay)

382 unique human kinases [16] = target: T16, 382 unique human kinases (Homo sapiens, UniProt Q9HCP0); conditions: CK1g1, 10 uM; for remaining activity at 10 µM: read-out: % Enzyme Activity (relative to DMSO controls)
T16 construct: purchased Reaction Biology (HotSpot contract assay)
T16 sequence (Q9HCP0 whole entry): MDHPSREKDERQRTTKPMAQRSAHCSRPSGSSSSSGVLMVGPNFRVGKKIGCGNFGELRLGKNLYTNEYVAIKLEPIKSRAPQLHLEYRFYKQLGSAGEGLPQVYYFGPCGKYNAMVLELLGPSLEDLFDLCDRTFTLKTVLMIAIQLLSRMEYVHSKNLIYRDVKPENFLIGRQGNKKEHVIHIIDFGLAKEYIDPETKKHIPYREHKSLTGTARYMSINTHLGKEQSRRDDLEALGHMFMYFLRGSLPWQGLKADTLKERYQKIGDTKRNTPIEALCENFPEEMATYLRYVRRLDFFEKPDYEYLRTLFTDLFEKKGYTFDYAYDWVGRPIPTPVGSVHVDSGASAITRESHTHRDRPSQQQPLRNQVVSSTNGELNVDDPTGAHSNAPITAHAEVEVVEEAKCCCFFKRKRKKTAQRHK

382 unique human kinases [17] = target: 382 unique human kinases (Homo sapiens, UniProt Q9Y463); conditions: DYRK1B, [ATP] 20 µM, compound 10 uM; for remaining activity at 10 µM: read-out: % Enzyme Activity (relative to DMSO controls)
382 unique human kinases (Homo sapiens, UniProt Q9Y463), sequence (Q9Y463 whole entry): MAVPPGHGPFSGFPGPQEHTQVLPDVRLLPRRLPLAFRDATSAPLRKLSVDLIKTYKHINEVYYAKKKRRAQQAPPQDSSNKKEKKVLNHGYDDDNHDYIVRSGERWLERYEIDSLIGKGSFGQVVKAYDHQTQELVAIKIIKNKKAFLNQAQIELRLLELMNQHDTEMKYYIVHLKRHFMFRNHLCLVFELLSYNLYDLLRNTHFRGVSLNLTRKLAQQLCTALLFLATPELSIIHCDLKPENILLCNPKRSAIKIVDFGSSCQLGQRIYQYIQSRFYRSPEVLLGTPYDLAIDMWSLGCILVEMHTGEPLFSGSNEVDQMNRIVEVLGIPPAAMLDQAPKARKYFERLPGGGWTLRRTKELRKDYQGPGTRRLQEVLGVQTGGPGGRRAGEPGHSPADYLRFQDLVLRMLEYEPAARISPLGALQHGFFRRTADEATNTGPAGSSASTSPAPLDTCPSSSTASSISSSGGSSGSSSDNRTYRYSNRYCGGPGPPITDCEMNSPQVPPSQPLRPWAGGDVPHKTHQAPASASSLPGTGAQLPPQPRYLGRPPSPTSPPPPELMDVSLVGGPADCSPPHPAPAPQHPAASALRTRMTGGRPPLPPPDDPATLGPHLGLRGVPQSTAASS

[18] = kinase AMPK(A2/B1/G1), compound 10 uM
[19] = kinase AMPK(A2/B2/G1), compound 10 uM
[20] = kinase AMPK(A2/B2/G2), compound 10 uM

T1 sequence (O00238 14-502): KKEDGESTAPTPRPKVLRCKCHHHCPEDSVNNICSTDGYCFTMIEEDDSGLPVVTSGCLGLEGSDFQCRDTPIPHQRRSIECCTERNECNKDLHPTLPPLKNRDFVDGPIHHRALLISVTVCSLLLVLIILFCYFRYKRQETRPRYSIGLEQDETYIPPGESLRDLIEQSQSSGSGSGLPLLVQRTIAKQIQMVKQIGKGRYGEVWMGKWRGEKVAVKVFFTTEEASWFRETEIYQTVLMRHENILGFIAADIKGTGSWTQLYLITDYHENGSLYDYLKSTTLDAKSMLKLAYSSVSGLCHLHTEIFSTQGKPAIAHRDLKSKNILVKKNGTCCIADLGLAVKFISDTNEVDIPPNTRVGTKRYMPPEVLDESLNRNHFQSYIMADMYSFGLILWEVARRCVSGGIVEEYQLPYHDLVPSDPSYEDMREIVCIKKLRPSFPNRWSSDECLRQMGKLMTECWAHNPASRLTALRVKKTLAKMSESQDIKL

| SMILES | remaining activity at 10 µM (382 unique human kinases [1]) [%] | remaining activity at 10 µM (382 unique human kinases [2]) [%] | remaining activity at 10 µM (382 unique human kinases [3]) [%] | remaining activity at 10 µM (382 unique human kinases [4]) [%] | remaining activity at 10 µM (382 unique human kinases [5]; AMPK(A2/B2/G3), 10 uM) [%] | remaining activity at 10 µM (382 unique human kinases [5]; [18]) [%] | remaining activity at 10 µM (382 unique human kinases [5]; [19]) [%] | remaining activity at 10 µM (382 unique human kinases [5]; [20]) [%] | remaining activity at 10 µM (382 unique human kinases [6]) [%] | remaining activity at 10 µM (382 unique human kinases [7]) [%] | remaining activity at 10 µM (382 unique human kinases [8]) [%] | remaining activity at 10 µM (382 unique human kinases [9]) [%] | remaining activity at 10 µM (382 unique human kinases [10]) [%] | remaining activity at 10 µM (382 unique human kinases [11]) [%] | remaining activity at 10 µM (382 unique human kinases [12]) [%] | remaining activity at 10 µM (382 unique human kinases [13]) [%] | remaining activity at 10 µM (382 unique human kinases [14]) [%] | remaining activity at 10 µM (382 unique human kinases [15]) [%] | remaining activity at 10 µM (382 unique human kinases [16]) [%] | remaining activity at 10 µM (382 unique human kinases [17]) [%] | other results |
| --- | --- | --- | --- | --- | --- | --- | --- | --- | --- | --- | --- | --- | --- | --- | --- | --- | --- | --- | --- | --- | --- |
| CC(C)c1cc(-c2n[nH]c(=O)n2-c2ccc3c(ccn3C)c2)c(O)cc1O [Ganetespib (STA9090)] | 94.5 | 72.5 | 70.6 | 73.4 | 65.8 | 80.4 | 82.1 | 84.6 | 154 | 65.3 | 79.1 | 83.6 | 79.3 | 85.5 | – | – | – | – | – | – | – |
| CC(C)c1cc(-c2n[nH]c(=O)n2-c2ccc3c(ccn3C)c2)c(O)cc1O [Ganetespib] | – | – | – | – | – | – | – | – | – | – | – | – | – | – | 98.6 | 98.6 | 54.1 | 39 | 95.4 | 45 | – |
| CCNC(=O)c1noc(-c2cc(C(C)C)c(O)cc2O)c1-c1ccc(CN2CCOCC2)cc1 [Luminespib] | – | – | – | – | – | – | – | – | – | – | – | – | – | – | 110 | 92.4 | 103 | 86.5 | 97.5 | 98.9 | % Enzyme Activity (relative to DMSO controls) (382 unique human kinases [12]): 108.63%; % Enzyme Activity (relative to DMSO controls) (382 unique human kinases [13]): 91.15%; % Enzyme Activity (relative to DMSO controls) (382 unique human kinases [14]): 100.81%; % Enzyme Activity (relative to DMSO controls) (382 unique human kinases [15]): 86.48%; % Enzyme Activity (relative to DMSO controls) (382 unique human kinases [16]): 93.44%; % Enzyme Activity (relative to DMSO controls) (382 unique human kinases [17]): 97.25% |
| CCNC(=O)c1noc(-c2cc(C(C)C)c(O)cc2O)c1-c1ccc(CN2CCOCC2)cc1 [Luminespib (AUY-922)] | 94.8 | 88.4 | 102 | 105 | 104 | 103 | 94.2 | 97.4 | 106 | 100 | 99.6 | 104 | 106 | 110 | – | – | – | – | – | – | % Enzyme Activity (relative to DMSO controls) (382 unique human kinases [1]): 93.58%; % Enzyme Activity (relative to DMSO controls) (382 unique human kinases [2]): 88.12%; % Enzyme Activity (relative to DMSO controls) (382 unique human kinases [3]): 101.12%; % Enzyme Activity (relative to DMSO controls) (382 unique human kinases [4]): 103.86%; % Enzyme Activity (relative to DMSO controls) (382 unique human kinases [5]; AMPK(A2/B2/G3), 10 uM): 103.09%; % Enzyme Activity (relative to DMSO controls) (382 unique human kinases [5]; [18]): 102.86%; % Enzyme Activity (relative to DMSO controls) (382 unique human kinases [5]; [19]): 94.15%; % Enzyme Activity (relative to DMSO controls) (382 unique human kinases [5]; [20]): 96.15%; % Enzyme Activity (relative to DMSO controls) (382 unique human kinases [6]): 101.59%; % Enzyme Activity (relative to DMSO controls) (382 unique human kinases [7]): 99.65%; % Enzyme Activity (relative to DMSO controls) (382 unique human kinases [8]): 99.03%; % Enzyme Activity (relative to DMSO controls) (382 unique human kinases [9]): 100.09%; % Enzyme Activity (relative to DMSO controls) (382 unique human kinases [10]): 105.09%; % Enzyme Activity (relative to DMSO controls) (382 unique human kinases [11]): 108.05% |

— PMC8550792, “Evolution of kinase polypharmacology across HSP90 drug discovery” (Cell Chemical Biology, 2021)
